Data on eleven compounds can be found in ChEMBL document CHEMBL1201862, “PubChem BioAssay data set” (2004).

Common to all, as to test: growth of human tumour cells (NCI), 48 h
Assay [1] relates to K562.
The subject of assay [2] is HCT-116.
Assay [3] relates to SF-539.
Assay [4] deals with HL-60.
The test system of assay [5] is OVCAR-3.
Assay [6] relates to EKVX.
The test system of assay [7] is HOP-62.
The subject of assay [8] is MDA-MB-435.
The subject of assay [9] is SK-MEL-5.
Assay [10] deals with A498.
Assay [11] has as its system COLO 205.
In assay [12] the test system is OVCAR-4.
Assay [13] relates to DU-145.
The subject of assay [14] is NCI/ADR-RES.
The test system of assay [15] is A549.
For assay [16], the system named is UACC-257.
Assay [17] deals with OVCAR-5.
For assay [18], the system named is HOP-92.
In assay [19] the test system is NCI-H226.
In assay [20] the test system is NCI-H522.

The structures appear in SMILES notation.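 Each compound was tested at five concentrations against cells in 96-well plates for 48 hours. GI50 marks 50% less growth.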 Active and inactive are the calls of the source. Cut-off read from the data, not from the text of the source: active = GI50 up to about 1.1 µM and inactive = higher.

Turning to `NCCN1C(=O)c2ccccc2C1c1ccc(Cl)cc1` (stereo not given), the GI50 in assay [1], in assay [2], in assay [3], in [4], in assay [5] and in assay [6] was > 100 µM (inactive) in each case. For the same compound, the GI50 in assay [7], in [8], in assay [9], in assay [10], in assay [11] and in assay [12] was > 100 µM (inactive) each time. The GI50 in [13], in assay [14], in assay [15], in assay [16], in [17] and in assay [18] was > 100 µM (inactive) in each case.
Regarding `Cc1ccc(/N=N/c2c(O)ccc3cc(S(=O)(=O)O)ccc23)cc1`, the GI50 in [1] is > 100 µM (inactive); in assay [2] it was 24.2 µM (inactive); in [5], > 100 µM (inactive); in assay [6], 29.6 µM (inactive); in assay [7], > 100 µM (inactive); in assay [8], > 100 µM (inactive). In addition, the GI50 was > 100 µM (inactive) in [9]; > 100 µM (inactive) in [19]; 73.5 µM (inactive) in [11]; > 100 µM (inactive) in [12]; > 100 µM (inactive) in assay [13]; > 100 µM (inactive) in [14]. In addition, the GI50 in assay [15], in assay [20], in assay [16], in assay [17] and in assay [18] was > 100 µM (inactive) each time.
Consider `CC(=O)C1(c2ccccc2)CCCN(C)CC1` (stereo not given), for which the GI50 in assay [2], in assay [5], in assay [7], in assay [8], in [9] and in assay [19] was > 100 µM (inactive) each time. For the same compound, the GI50 in assay [10], in assay [11], in assay [12], in [13], in assay [14] and in [16] was > 100 µM (inactive) each time. Moreover, the GI50 in assay [17] and in assay [18] was > 100 µM (inactive) in each case.
Consider `COc1cc([C@@]23OC[C@@H]4[C@@H](OC[C@@H]42)c2cc4c(cc23)OCO4)cc(OC)c1OC`, for which the GI50 is < 0.0208 µM (active) in [1]; < 0.01 µM (active) in assay [2]; < 0.01 µM (active) in assay [3]; < 0.01 µM (active) in assay [4]; < 0.01 µM (active) in assay [5]; < 0.01 µM (active) in assay [7]. Besides, the GI50 is < 0.01 µM (active) in assay [8]; < 0.01 µM (active) in assay [9]; < 0.01 µM (active) in assay [19]; < 0.01 µM (active) in assay [10]; < 0.01 µM (active) in [11]; 5.19 µM (inactive) in [12]. Moreover, the GI50 was < 0.01 µM (active) in assay [13]; < 0.01 µM (active) in assay [14]; < 0.01 µM (active) in [15]; < 0.01 µM (active) in [20]; < 0.01 µM (active) in assay [16]; > 48.2 µM (inactive) in assay [17].
As for `CSC(=S)OC1C(CO[Si](C)(C)C(C)(C)C)OC2OC(C)(C)OC21` (stereo not given), the GI50 in assay [1] was 17.1 µM (inactive); in assay [2] it was 18.5 µM (inactive); in assay [3], 20.2 µM (inactive); in assay [5], 17 µM (inactive); in [6] it was 20.3 µM (inactive); in [7], 18.4 µM (inactive). For the same compound, the GI50 is 33.2 µM (inactive) in assay [8]; 16.8 µM (inactive) in assay [9]; 14.5 µM (inactive) in [19]; 21.8 µM (inactive) in [10]; 19.2 µM (inactive) in assay [11]; 49.4 µM (inactive) in assay [12]. Further, the GI50 in assay [13] was 33.5 µM (inactive); in assay [14], 14.7 µM (inactive); in [15], 25.5 µM (inactive); in assay [20], 15.8 µM (inactive); in [16] it was 17.1 µM (inactive); in [17] it was 21.3 µM (inactive).
For the compound `COC(=O)c1cc(OS(=O)(=O)C(F)(F)F)c(=O)n2c1CCCC2`, the GI50 in assay [2], in assay [3], in assay [4], in assay [6], in [7] and in assay [8] was > 100 µM (inactive) each time. Also, the GI50 is > 100 µM (inactive) in assay [9]; 9.2 µM (inactive) in assay [19]; > 100 µM (inactive) in assay [10]; > 100 µM (inactive) in [11]; > 100 µM (inactive) in assay [12]; > 100 µM (inactive) in [13]. For the same compound, the GI50 in assay [14], in assay [15], in [20], in assay [16] and in assay [17] was > 100 µM (inactive) each time.
Regarding `Cc1ccc(Cc2nn(C)c(=O)n2-n2cccc2)cc1`, the GI50 in [1], in assay [2], in assay [5], in assay [6], in [7] and in assay [8] was > 100 µM (inactive) each time. The GI50 in assay [9], in [19], in [10], in assay [11], in assay [12] and in assay [13] was > 100 µM (inactive) in each case. Further, the GI50 was > 100 µM (inactive) in assay [14]; > 100 µM (inactive) in [15]; > 100 µM (inactive) in assay [20]; 56.8 µM (inactive) in [16]; > 100 µM (inactive) in assay [17].
Consider `Cc1cc(O)c(C(C)C)cc1C(=S)Nc1ccc(Cl)cc1`, for which the GI50 in assay [1] is 4.35 µM (inactive); in assay [2], 13 µM (inactive); in [3] it was 14.3 µM (inactive); in [4], 7.05 µM (inactive); in assay [5], 14.7 µM (inactive); in assay [6], 12.7 µM (inactive). The GI50 in assay [7] is 18.5 µM (inactive); in assay [8] it was 10.6 µM (inactive); in [9], 11.5 µM (inactive); in assay [10], 15.1 µM (inactive); in [11] it was 16.1 µM (inactive); in [12], 7.19 µM (inactive). Further, the GI50 in [13] was 17.7 µM (inactive); in assay [14], 12.9 µM (inactive); in assay [20], 5.61 µM (inactive); in assay [16] it was 10.9 µM (inactive); in [17] it was 15 µM (inactive).
In the case of `CC1(C)[C@@H](Cn2nnc3c(N)ncnc32)CC[C@@]1(C)CO`, the GI50 in assay [1], in [2], in [3], in assay [5], in [6] and in assay [7] was > 100 µM (inactive) in each case. The GI50 in assay [8] is > 100 µM (inactive); in assay [9], 55 µM (inactive); in assay [19] it was > 100 µM (inactive); in [10], > 100 µM (inactive); in [12], > 100 µM (inactive); in assay [13], > 100 µM (inactive). Further, the GI50 in assay [14], in assay [15], in assay [16], in assay [17] and in assay [18] was > 100 µM (inactive) throughout.
`c1ccc(Nc2nnc(-c3ccccc3Nc3ccccc3-c3nnc(Nc4ccccc4)s3)s2)cc1`: the GI50 in assay [1], in assay [2], in assay [3], in assay [4], in assay [5] and in assay [6] was > 100 µM (inactive) in each case. In addition, the GI50 in [7], in [8], in [9], in assay [19], in assay [11] and in assay [12] was > 100 µM (inactive) each time. Also, the GI50 was > 100 µM (inactive) in [13]; > 100 µM (inactive) in [14]; > 100 µM (inactive) in [20]; > 100 µM (inactive) in assay [16]; > 100 µM (inactive) in [17]; 0.703 µM (active) in assay [18].
Take `CN1N=C(c2ccncc2)OC1c1cccc(F)c1` (stereo not given): the GI50 in assay [1], in assay [2], in [3], in assay [4], in [5] and in assay [6] was > 100 µM (inactive) in each case. The GI50 in assay [7] is > 100 µM (inactive); in assay [8], > 100 µM (inactive); in [9], > 100 µM (inactive); in assay [19] it was 68.5 µM (inactive); in assay [10], > 100 µM (inactive); in assay [11], > 100 µM (inactive). Moreover, the GI50 in assay [12], in assay [13], in assay [14], in [15], in [20] and in assay [16] was > 100 µM (inactive) throughout. Also, in [17], the GI50 is > 100 µM (inactive).
